Data on two compounds can be found in patent US20170362609A1, “[…] NANOPARTICLES FOR CODELIVERY OF WATER-INSOLUBLE SMALL MOLECULES AND RNAi” (Massachusetts Institute of Technology, priority 2016, published 2017).

One test has as its system 5′-GMP. The experiment in a line: 5′-GMP binding with platinum species by 1HNMR.
For test [1], the system named is BCL-2 siRNA. The experiment in a line: siRNA binding with platinum species by MALDI-TOF-MS. The following applies: 10-fold excess of platinum. How it is done:
The reaction mixture was placed in a 37° C. incubator and 10 μL of sample were removed at various time points to obtain MALDI-TOF-MS spectra (positive model).

Another test relates to A2780DDP cells. The experiment in a line: MTT cytotoxicity. In kind it is cell-based. Conditions: platinum concentration.
Test [2] has as its system MCF-7 cells. Description: MTT cytotoxicity. The following applies: platinum concentration, siRNA 100 nM. The test is classed as cell-based. How it is done:
In vitro Cytotoxicity Measurements. MCF-7 cells were seeded in 96-well plates at a density of 1×10^4 cells/well. 100 μL of DMEM supplemented with 10% FBS were added to each well and the cells were incubated at 37° C. for 24 h. […] All experiments were conducted in triplicate.

For test [3], the system named is BCL-2 siRNA. Description: Double-stranded siRNA binding with platinum species by AAS. The following applies: by 3 h of incubation. How it is done:
A double-stranded RNA (sense: […]-ATT; antisense: […]-[…]) was mixed with OxaPt(II) at a molar ratio of 1:10 in RNAase free water (RNA final concentration: 5 μM; Pt final concentration at 50 μM; total volume of 100 μL). […] The RNA was then isolated using a centrifugation separation device (molecular cut-off 3000 Da, spun at 10,000 rpm; Nanosep®3k, Pall Corporation, USA). Five wash cycles with RNAase free water (5×100 μL) then ensued. An aliquot of 2 μL from each sample was obtained for optical density (OD) measurements in order to quantify the concentration of RNA in the original sample, using a NanoDrop reader. The remainder of each sample was diluted in 3% HNO3 for Pt content measurement via AAS. The experiments were performed in triplicate and data are presented such that the concentration of Pt-RNA adducts at each time point are expressed as “μmol Pt/μmol RNA”. Analogous methods were employed to obtain similar values for the numbers of Pt-RNA adducts formed by the reaction of siRNA with OxaPt(IV), CisPt(II) or CisPt(IV) at similar time points.
MALDI/TOF MS was used to ascertain the kinetics of platinum-RNA adduct formation using BCL-2 siRNA that was incubated with a 10-fold excess of various platinum(II) or platinum(IV) species. […]

A further test relates to A2780 cells. Description: MTT cytotoxicity. In kind it is cell-based. The following applies: platinum concentration.
The test system of test [4] is MCF-7 cells. Description: Intracellular platinum uptake. In kind it is cell-based. As for the experimental part:
FIG. 19A is a bar graph showing platinum uptake (μg Pt/cell) for various compositions. […] Experiments were performed in triplicate. […] IC50 values were derived from three independent experiments each with four technical replicates per condition.
MCF-7 cells were seeded in 12-well plates at a density of 10^5 cells per well and incubated overnight in 1 mL of DMEM containing 10% FBS. […]

Test [5] concerns MCF-7 cells. Description: Pt-DNA adducts in cells. In kind it is cell-based. The following applies: 24 h after treatment. As for the experimental part:
FIG. 19B is a bar graph showing the total number of Pt-DNA adducts (pg Pt/μg DNA) as assessed after 24 h of incubation with each treatment group, as defined in the description of FIG. 19A. DNA was isolated after cellular lysis and the content of DNA-bound Pt was determined by ICP-MS. Experiments were performed in triplicate. […] IC50 values were derived from three independent experiments each with four technical replicates per condition. […] In all cases, significance is defined as *p<0.05, **p<0.01, and ***p<0.001.
Atomic absorption spectroscopy (generation 8.0, Perkin Elmer) was used to study the kinetics of siRNA platination and to determine the platinum content in all micellar formulations. Inductively coupled plasma mass spectrometry (ICP-MS, Xseries II, Thermo scientific, USA) was used for quantitative determination of trace levels of platinum in cancer cells and to quantify Pt-DNA adduct formation. Sizes and distributions of micelles were determined by dynamic light scattering (DLS) with a vertically polarized He—Ne laser (DAWN EOS, Wyatt Technology, USA). The size and morphologies of the micelles very visualized using a JEOL JEM-1011 electron microscope. Particle size and zeta potential measurements were conducted on a Malvern Zetasizer Nano ZS90. Micelles were prepared by directly dissolving various modified triblock copolymers in water at 0.5 mg/mL.

Another test relates to OVCAR4 cells. Description: MTT cytotoxicity. In kind it is cell-based. Conditions: platinum concentration.

Experimental for 5′-GMP: The binding kinetics of 5′-GMP to each platinum species were determined by measuring the relative amounts of free and Pt-bound 5′-GMP at each time point, integrating the ratio of the ^1HNMR peaks at 8.5 ppm to 8.09 ppm.

Turning to `N.N.[Cl][Pt][Cl]` [CisPt(II), cisplatin], the “formation of Pt(NH3)2(5′-GMP)2 adducts” value in the test on 5′-GMP (data not shown) was “Similarly rapid formation and time dependent increases”. The “time at which Pt-siRNA adducts could be detected” value with BCL-2 siRNA [1] is listed as at most 30 m.
On to `O=C1[O][Pt]2([NH][C@@H]3CCCC[C@H]3[NH]2)[O]C1=O` [OxaPt(II), Oxaliplatin], for which the IC50 (usually the concentration that inhibits the measured activity by half) in the test on A2780DDP cells was determined as 18.8 ± 0.99 µM; with MCF-7 cells [2] it was 23.1 ± 0.25 µM; in the test with A2780 cells, 2.9 ± 0.28 µM; with OVCAR4 cells, 15.5 ± 0.5 µM. Also, in the test on BCL-2 siRNA [3], the siRNA transcripts platinated was over 50%. Further, the “Platinum uptake 1 h” value in the test on MCF-7 cells [4] (1 h) is recorded as 369 ± 24 pg Pt/cell (×10^−4). Moreover, the “Platinum uptake 4 h” value in the test with MCF-7 cells [4] (4 h) is recorded as 535 ± 16 pg Pt/cell (×10^−4). For the same compound, the “Pt-DNA adducts After 24 h” value in the test with MCF-7 cells [5] came out at 41.10 ± 9.84 ng Pt/μg DNA. Moreover, in the test on 5′-GMP (30 m incubation, 10 mM 5′-GMP, 5 mM Pt, 37° C.), the “DACHPt(5′-GMP)2 adducts, share of the 5′-GMP pool” value is recorded as “approximately 10%”. For the same compound, in the test with 5′-GMP (over the first 6 h, 10 mM 5′-GMP, 5 mM Pt, 37° C.), the “DACHPt(5′-GMP)2 adducts, share of the total 5′-GMP pool” value was over 40%. Besides, in the test on BCL-2 siRNA [1], the “time at which Pt-siRNA adducts could be detected” value was determined as 1 h.
